According to paper PMC9617675 (Antiviral Research, 2022):
Where “and” joins values, the source holds several entries; their conditions need not be identical. Equal values may be shown once. Read-outs that look alike come from different tables or passages of the source.

Key:
in vitro = conditions: African green monkey
[1] = tested on: SARS-CoV-2 wild-type (2019-nCoV-WIV04); type: cell-based
[2] = tested on: SARS-CoV-2 B.1.1.7 (Alpha); type: cell-based; conditions: Vero E6 cells, mean ± SD
[3] = tested on: SARS-CoV-2 B.1.351 (Beta); type: cell-based; conditions: Vero E6 cells, mean ± SD
[4] = tested on: SARS-CoV-2 B.1.617.2 (Delta); type: cell-based; conditions: Vero E6 cells, mean ± SD
[5] = tested on: SARS-CoV-2 (2019-nCoV-WIV04); type: cell-based; conditions: Vero E6
SARS-CoV-2 = assay: Time of addition assay in Vero E6 cells; type: cell-based; conditions: 2 μM, 10 μM, 1 μM + P-gp inhibitor; entry, post entry and full-time
[6] = healthy human; ref NCT05197179 and NCT04766931; cited from earlier work

Row | Structure (SMILES) | CC50 (in vitro) [µM] | EC50 [1] [µM] | EC90 [1] [µM] | EC50 [2] [µM] | EC90 [2] [µM] | EC50 [3] [µM] | EC90 [3] [µM] | EC50 [4] [µM] | EC90 [4] [µM] | EC50 ([5]; 10% human serum) [µM] | EC50 ([5]; 20% human serum) [µM] | EC50 ([5]; 30% human serum) [µM] | EC50 ([5]; 40% human serum) [µM] | EC50 ([5]; 50% human serum) [µM] | antiviral activity in time of addition assay (SARS-CoV-2) | CC50 (Vero E6 cells; CCK8, 24 h) | CC50 (Vero E6 cells; CCK8, with P-gp inhibitor CP-100356) [µM] | safety and tolerability [6]
1 | CCN(CC)CCCC(C)Nc1ccnc2cc(Cl)ccc12 (stereo not drawn) [Chloroquine phosphate] | > 100 | – | – | – | – | – | – | – | – | – | – | – | – | – | – | – | – | –
2 | O=C[C@H](C[C@@H]1CCNC1=O)NC(=O)[C@H](CC1CCCCC1)NC(=O)c1cc2ccccc2[nH]1 [FB2001] | – | 0.42 ± 0.08 | 1.36 ± 1.73 | 0.39 ± 0.01 | 0.75 ± 0.01 | 0.28 ± 0.11 | 0.57 ± 0.21 | 0.27 ± 0.05 | 0.81 ± 0.2 | 1.1 | 1.91 | 2.57 | 2.15 | 2.4 | potent antiviral activities under all conditions | 243 µM and 274 µM | 142 | good safety and tolerability
3 | CC(C)(C)[C@H](NC(=O)C(F)(F)F)C(=O)N1C[C@H]2[C@@H]([C@H]1C(=O)N[C@H](C#N)C[C@@H]1CCNC1=O)C2(C)C [PF-07321332, reference compound] | – | – | – | 0.82 ± 0.02 | 1.54 ± 0.02 | 0.49 ± 0.06 | 1.74 ± 0.26 | 0.78 ± 0.21 | 1.89 ± 0.1 | – | – | – | – | – | – | – | – | –
